Source: patent US5602134A, “Positive inotropic and lusitropic pyrroloquinolinone derivatives” (Janssen Pharmaceutica N.V., priority 1993, dated 1997)
Counter-ions that a name gives are not always drawn. Like-named read-outs stand apart in the source and are kept apart here.

Columns and labels:
[1] = target: T1, canine heart phosphodiesterase PDE III (Canis lupus familiaris, UniProt A0A8I3NYE0); assay: Inhibition of Phosphodiesterase Type III (PDE III); format: biochemical; conditions: 10 min at 37° C., pH 7.1
T1 construct: canine heart phosphodiesterase PDE III; from tissue; host or cells: canine heart
T1 sequence (A0A8I3NYE0 1-1135): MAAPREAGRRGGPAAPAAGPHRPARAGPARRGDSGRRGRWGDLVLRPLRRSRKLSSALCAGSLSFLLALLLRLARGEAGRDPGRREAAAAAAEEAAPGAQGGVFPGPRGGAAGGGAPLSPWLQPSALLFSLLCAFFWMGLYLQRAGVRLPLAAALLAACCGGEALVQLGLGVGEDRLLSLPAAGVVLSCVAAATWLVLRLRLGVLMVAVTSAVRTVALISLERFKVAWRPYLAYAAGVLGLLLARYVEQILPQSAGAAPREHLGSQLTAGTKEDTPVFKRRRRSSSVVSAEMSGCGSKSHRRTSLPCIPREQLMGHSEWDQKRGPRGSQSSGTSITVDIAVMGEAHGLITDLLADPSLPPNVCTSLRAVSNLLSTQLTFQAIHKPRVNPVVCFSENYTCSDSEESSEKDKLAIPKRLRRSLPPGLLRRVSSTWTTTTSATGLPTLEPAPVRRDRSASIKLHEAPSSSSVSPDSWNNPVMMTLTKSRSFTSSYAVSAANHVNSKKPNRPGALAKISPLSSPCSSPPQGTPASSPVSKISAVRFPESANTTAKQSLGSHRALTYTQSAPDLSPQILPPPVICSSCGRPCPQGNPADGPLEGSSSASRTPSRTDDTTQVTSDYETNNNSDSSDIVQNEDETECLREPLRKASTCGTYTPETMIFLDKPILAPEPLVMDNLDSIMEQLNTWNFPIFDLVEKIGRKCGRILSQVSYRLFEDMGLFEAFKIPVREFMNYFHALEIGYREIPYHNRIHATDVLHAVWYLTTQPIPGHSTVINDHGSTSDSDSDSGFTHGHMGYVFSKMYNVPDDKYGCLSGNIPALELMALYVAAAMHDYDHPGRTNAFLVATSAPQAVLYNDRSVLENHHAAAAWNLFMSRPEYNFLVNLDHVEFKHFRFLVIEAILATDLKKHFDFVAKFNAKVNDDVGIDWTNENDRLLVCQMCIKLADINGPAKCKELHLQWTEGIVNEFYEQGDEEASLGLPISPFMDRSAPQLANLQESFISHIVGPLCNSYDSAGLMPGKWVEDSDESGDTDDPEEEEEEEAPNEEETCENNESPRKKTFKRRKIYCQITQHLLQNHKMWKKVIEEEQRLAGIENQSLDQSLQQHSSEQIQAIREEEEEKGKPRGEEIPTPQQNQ
Method: The positive inotropic and lusitropic effect of the instant compounds was assessed by an in vitro assay system to detect inhibiting effect on the phosphodiesterase type III and in an in vivo experiment in closed-chest anesthetized dogs by monitoring cardiac and haemodynamic effects of an intravenous bolus injection of the instant compounds. […] Inhibition of Phosphodiesterase Type III (PDE III) […] For every preparation,time- and concentration-dependent changes in cyclic nucleotide hydrolysis were measured. […] The enzymatic activity was started by addition of substrate and stopped 10 min later after the tubes were transferred to a waterbath at 100° C. for 40 sec. After the tubes had been cooled to room temperature, alkaline phosphatase (0.25 g/ml) was added and the mixture was left at 37° C. for 20 min. The mixture was subsequently applied to a 1-ml DEAE-Sephadex A-25 column and washed twice with 3 ml of 20 mM Tris-HCl at pH 7.4. The ^3 H-labeled reaction products in the eluate were quantified by liquid scintillation counting. The inhibiting effect of the present compounds on canine heart phosphodiesterase PDE III was measured at different concentrations of the instant compounds. The IC50 values were calculated graphically from the thus obtained inhibition values.

Beagle dogs = assay: Positive inotropy and lusitropy, blood pressure and heart rate in anaesthetized closed-chest dogs; format: in vivo, Beagle dog; conditions: Canis lupus familiaris, iv, 5 min, 5 min after i.v. administration, n = 3, relative to premedication values
Method: The positive inotropic and lusitropic effect of the instant compounds was assessed by an in vitro assay system to detect inhibiting effect on the phosphodiesterase type III and in an in vivo experiment in closed-chest anesthetized dogs by monitoring cardiac and haemodynamic effects of an intravenous bolus injection of the instant compounds.
Positive Inotropy and Lusitropy, Blood Pressure and Heart Rate in Dogs
The test compound was dissolved in an aqueous glucose solution in a concentration of 1 mg.ml^-1. The experiments were performed on 3 Beagle dogs of either sex and varying age, ranging in body weight from 11 to 18 kg (median 13 kg). The animals were intravenously anaesthetized with a mixture of 0.015 mg.kg^-1 scopolamine and 0.05 mg.kg^-1 lofentanil. The animals were intubated with a cuffed endotracheal tube. Intermittent positive pressure ventilation was performed with a mixture of pressurized air and oxygen (60/40), using a volume-controlled ventilator (Siemens Elema). In the control period the CO2 concentration in the expired air (ET CO2), as determined with a capnograph (Gould Godart), was kept at 5 vol % by adjustment of the respiratory volume (resp. rate=20 breaths.min^-1). A continuous intravenous infusion of 0.5 mg.kg^-1.h^-1 of etomidate was started immediately after induction. Body temperature was monitored with a thermistor positioned in the pulmonary artery. To prevent blood clotting heparin, 1000 IU.kg^-1i.v., was administered.
The electrocardiogram (ECG) was derived from limb leads (standard lead 2). Left ventricular (LVP) and ascending aortic blood pressure (AoP) were measured by retrograde catheterisation via the femoral arteries with high fidelity cathetertip micromanometers (Honeywell). The other femoral vein was cannulated for injection of saline at room temperature into the right atrium and for injection of the test compound. Peak ascending aortic blood flow velocity was measured through the fight carotid artery with an electomagnetic catheter-tip probe connected to a square wave electomagnetic flow meter (Janssen Scientific Instruments). The following variables--inter alia--were calculated on-line, usually at 1 rain intervals: heart rate (HR), diastolic (AoPd) aortic blood pressure, left ventricular end-diastolic pressure (LVEDP), the maximum positive and maximum negative rate of change of isovolumic LVP (LV dp/dtmax and min, respectively), the maximum positive first derivative divided by the actually developed pressure in the left ventricle (LV dp/dtmax /Pd). The time constant (T) of relaxation was measured with the use of an exponential analysis that also estimated the asymptote. After a stabilization period, the animals were treated by intravenous bolus injection of the test compound at 30 min. interval in cumulative doses of 0.0005, 0.001, 0.004, 0.016, 0.064, 0.125 and 0.25 mg/kg.

[2] = read-out: Calculated dose producing a 15% reduction in diastolic aortic blood pressure (AoPD)
[3] = read-out: Calculated dose producing a 15% reduction of total systemic vascular resistance (TSR)
[4] = read-out: Calculated dose producing a 30% increase in cardiac contractility (LV dp/dt max)
[5] = read-out: Calculated dose producing a 30% increase in heart rate (HR)

Row | SMILES | IC50 [1] [µM] | ED15 (Beagle dogs; [2]) [mg/kg] | ED15 (Beagle dogs; [3]) [mg/kg] | ED30 (Beagle dogs; [4]) [mg/kg] | ED30 (Beagle dogs; [5]) [mg/kg]
1 | CCOC(=O)CCCOc1ccc2nc3c(cc2c1)CC(=O)N3 [Compound 1, ethyl 4-[(2,3-dihydro-2-oxo-1H-pyrrolo[2,3-b]quinolin-6-yl]oxy]butanoate] | 0.29 | – | – | – | –
2 | CCOC(=O)CCCCOc1ccc2nc3c(cc2c1)CC(=O)N3 [Compound 2, ethyl 5-[(2,3-dihydro-2-oxo-1H-pyrrolo[2,3-b]quinolin-6-yl]oxy]pentanoate] | 0.062 | – | – | – | –
3 | O=C(O)CCCOc1ccc2nc3c(cc2c1)CC(=O)N3 [Compound 3, 4-[(2,3-dihydro-2-oxo-1H-pyrrolo[2,3-b]quinolin-6-yl)oxy]butanoic acid] | 0.33 | – | – | – | –
4 | O=C1Cc2cc3cc(OCCCC(=O)N4CCN(CC5CCCCC5)CC4)ccc3nc2N1 [Compound 5, 1-(cyclohexylmethyl)-4-[4-[(2,3-dihydro-2-oxo-1H-pyrrolo[2,3-b]quinolin-6-yl)oxy]-1-oxobutyl]piperazine] | 0.018 | > 0.25 | 0.079 | 0.008 | 0.033
5 | O=C1Cc2cc3cc(OCCCCC(=O)N4CCN(CC5CCCCC5)CC4)ccc3nc2N1 [Compound 6] | 0.0024 | – | – | – | –
6 | O=C1Cc2cc3cc(OCCCCC(=O)NC4CCN(Cc5ccccc5)CC4)ccc3nc2N1 [Compound 7] | 0.058 | – | – | – | –
7 | CN1CCC(N(C)C(=O)CCCOc2ccc3nc4c(cc3c2)CC(=O)N4)CC1 [Compound 8, 4-[(2,3-dihydro-2-oxo-1H-pyrrolo[2,3-b]quinolin-6-yl)oxy]-N-methyl-N-(1-methyl-4-piperidinyl)butanamide] | 0.3 | – | – | – | –
8 | Cl.O=C1Cc2cc3cc(OCCCCC(=O)N4CCN(CC5CCCCC5)CC4)ccc3nc2N1 [Compound 15, 1-(cyclohexylmethyl)-4-[5-[(2,3-dihydro-2-oxo-1H-pyrrolo[2,3-b]-quinolin-6-yl)oxy]-1-oxopentyl]piperazine monohydrochloride] | 0.0018 | 0.015 | 0.003 | 0.002 | 0.028
9 | O=C1Cc2cc3cc(OCCCC(=O)N4CCN(CC5CCCCC5)CC4)ccc3nc2N1 [Compound 16, 1-(cyclohexylmethyl)-4-[4-[(2,3-dihydro-2-oxo-1H-pyrrolo[2,3-b]quinolin-6-yl)oxy]-1-oxobutyl]piperazine dihydrochloride ethanolate(1:1)] | 0.027 | – | – | – | –
10 | CN(C(=O)CCCOc1ccc2nc3c(cc2c1)CC(=O)N3)C1CCCCC1 [Compound 17, N-cyclohexyl-4-[(2,3-dihydro-2-oxo-1H-pyrrolo[2,3-b]quinolin-6-yl)oxy]-N-methylbutanamide hemihydrate] | 0.0076 | – | – | – | –
